Test results taken from patent US5877202A, “Indole derivatives useful to treat estrogen-related neoplasms and disorders” (priority 1996, dated 1999).

Tests used:
Assay type in all cases: cell-based
GAPDH mRNA = GAPDH mRNA levels in treated MCF-7 human breast tumor cells (positive control probe); conditions: 30 μM, 24 hr;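 further: Phosphoimager intensity of radioactive mRNA bands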
Experimental: (§1) After treatment with 30 μM drug for 24 hr, total RNA is isolated according to the guanidinium isothiocyanate method using an RNA preparation kit from 5 Prime-3 Prime, Inc., following the manufacturer's instructions. The RNA is separated by formaldehyde gel electrophoresis and transferred to a nylon membrane.

[1] = tested on: tamoxifen-resistant LY-2 cells; test: Inhibition of growth of tamoxifen-resistant LY-2 cells; conditions: medium with 0.001 mg/ml insulin
estrogen receptor mRNA = test: Reduction of estrogen receptor mRNA levels in treated MCF-7 human breast tumor cells;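 on Estrogen Receptor mRNA band intensity: Phosphoimager intensity of radioactive mRNA bands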
Experimental: as §1

[2] = tested on: MCF-7 human breast tumor cells; test: Clonigenic assay for MCF-7 human breast tumor cells; conditions: for Colonies ± S.D.: 24 hours treatment, grown 22 days
Experimental: MCF-7 cells (10^7) are added to 100 mm tissue culture dishes, allowed to adhere for 24 hours and then treated with either MDL 101,906 or ICI 164,384 for 24 hours. The cells are removed from the dishes with trypsin/EDTA, and washed twice by centrifugation. The cells were counted and 500 cells from each treatment group are added to triplicate wells of 6-well culture dishes. The cells are grown for 22 days. Colonies 1 mm diameter or greater are counted.

CCCCN(C)C(=O)CCCCCCCNC(=O)Cc1c(C)n(C(=O)c2ccc(Cl)cc2)c2ccc(O)cc12 [MDL 101,906, 8-[[5-Hydroxy-1-(4-chlorobenzoyl)-2-methyl-1H-indol-3-yl]-acetylamino]-octanoic acid methyl-butyl-amide]
GAPDH mRNA band intensity (GAPDH mRNA; replicate 1): 5,227 | GAPDH mRNA band intensity (GAPDH mRNA; replicate 2): 5,077 | IC50 [1]: 4.7 µM | ER/GAPDH mean (estrogen receptor mRNA; 30 μM, 24 hr, mean of replicates 1 and 2): 0.53 | ER/GAPDH (estrogen receptor mRNA; 30 μM, 24 hr, replicate 1): 0.98 | Estrogen Receptor mRNA band intensity (estrogen receptor mRNA; 30 μM, 24 hr, replicate 1): 5,142 | ER/GAPDH (estrogen receptor mRNA; 30 μM, 24 hr, replicate 2): 0.38 | Estrogen Receptor mRNA band intensity (estrogen receptor mRNA; 30 μM, 24 hr, replicate 2): 1,916 | activity at 30 µM (estrogen receptor mRNA; Homo sapiens, MCF7, 24 h, read-out: ER/GAPDH % Control): 18% | Colonies ± S.D. ([2]; 10 μM): 30 ± 10 | Colonies ± S.D. ([2]; 20 μM): 27 ± 5 | Colonies ± S.D. ([2]; 50 μM): 12 ± 2 | activity at 10 µM ([2]; Homo sapiens, MCF7, 528 h, 10 μM, read-out: Colonies, % Control): 91% | activity at 20 µM ([2]; Homo sapiens, MCF7, 528 h, 20 μM, read-out: Colonies, % Control): 82% | activity at 50 µM ([2]; Homo sapiens, MCF7, 528 h, 50 μM, read-out: Colonies, % Control): 36%
